From US4877727A, “Substrate for determining leucine aminopeptidase or gamma-glutamyltranspeptase activity” (Kyowa Medex Co., Ltd., priority 1984, dated 1989)
≈ marks a conversion by molar mass, not a printed value.

Key:
[1] = Maximum wavelength of formed pigment; type: physicochemical
Protocol: 50 μl of 1 mM each free compound was added to 3 ml of 0.1M phosphate buffer containing 0.5 mg/ml EMSE and 1 U/ml laccase and the mixture was incubated at 37° C. for 5 minutes. The absorption of the reaction solution at λmax was measured. As a control, 5-aminosalicylic acid was used and the reaction of the compound with 2,6-xylenol was carried out in the presence of metaperiodate under strong alkaline conditions.

[2] = Stability of pigment; type: physicochemical
[3] = Solubility of substrate; type: physicochemical; conditions: read-out: S: Solubility
[4] = molecular target: T1, γ-glutamyltranspeptidase (γ-GTP) (Homo sapiens, UniProt P19440); test: γ-GTP determination in serum (Example 3); type: biochemical; conditions: found with the compound as substrate; standard serum 235 mU/ml; 37° C., 5 minutes; wavelength of Table 2
T1 construct: from tissue; host or cells: serum
Protocol: In this example, 500 mg of compound Nos. 1, 3, 5, 7 and 9 each and 500 mg of glycylglycine were dissolved in 100 ml (pH=7.7) and 0.1M phosphate buffer. The resultant solutions were designated A-1, A-3, A-5, A-7 and A-9, respectively. 50 mg of 3-{N-(m-tolyl)-N-ethyl}amino-2-hydroxypropane sulfonic acid was dissolved in 100 ml of phosphate buffer solution to obtain solution B. 50 mg/ml sodium meta-periodate containing 1N-HCl solution was prepared as solution C.
6 ml of solution A-1, A-3, A-5, A-7 or A-9 was equally poured to 3 test tubes. The samples were incubated at 37° C. and to the solution was added […] of (a) serum sample (b) standard serum or (c) water. The mixtures were stirred and heated for 5 minutes. After 5 minutes had passed, 1 ml of solution B and 1 ml of solution C were added to each of the mixtures and the mixtures were incubated for 10 minutes after stirring. As the standard serum, a serum having 235 mU/ml of γ-GTP was used.
The γ-GTP activity of the serum sample can be calculated by the following equation. [formula]

T1 sequence (P19440 1-380 limits assumed): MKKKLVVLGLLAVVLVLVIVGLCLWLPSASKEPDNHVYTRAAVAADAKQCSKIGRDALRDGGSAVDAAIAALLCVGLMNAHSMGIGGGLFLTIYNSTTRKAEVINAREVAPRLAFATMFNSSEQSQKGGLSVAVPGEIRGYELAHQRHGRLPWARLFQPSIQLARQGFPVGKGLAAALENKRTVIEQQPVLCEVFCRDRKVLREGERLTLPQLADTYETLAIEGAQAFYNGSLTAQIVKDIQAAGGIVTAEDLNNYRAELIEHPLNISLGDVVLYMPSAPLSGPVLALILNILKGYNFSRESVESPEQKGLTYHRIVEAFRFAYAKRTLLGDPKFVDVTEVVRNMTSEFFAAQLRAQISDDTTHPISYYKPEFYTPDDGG
T1 sequence (P19440 381-569 limits assumed): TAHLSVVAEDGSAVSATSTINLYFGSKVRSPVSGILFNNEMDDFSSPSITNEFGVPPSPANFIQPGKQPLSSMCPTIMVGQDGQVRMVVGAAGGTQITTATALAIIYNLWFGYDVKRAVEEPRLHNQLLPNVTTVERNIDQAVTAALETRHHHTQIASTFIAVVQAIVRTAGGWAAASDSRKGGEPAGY

| Structure (SMILES) | λmax: Maximum wavelength [1] | ST: Stability of pigment [2] | solubility [3] | γ-GTP activity of the serum sample [4] |
| --- | --- | --- | --- | --- |
| CCN(CC(O)CS(=O)(=O)O)c1ccc(NC(=O)CC[C@H](N)C(=O)O)cc1 (stereo partly shown) [compound 5] | 740 nm | > 98% | 170 mg/mL (≈ 421 mM) | 236 mU/ml |
| CCN(CC(O)CS(=O)(=O)O)c1ccc(NC(=O)[C@@H](N)CC(C)C)cc1 (stereo partly shown) [compound 6] | 740 nm | > 98% | 90 mg/mL (≈ 232 mM) | – |
| CC(C)C[C@H](N)C(=O)Nc1ccc(N(CCCS(=O)(=O)O)CCCS(=O)(=O)O)c(S(=O)(=O)O)c1 [compound 8] | 680 nm | 93% | > 200 mg/mL | – |
| CC(C)C[C@H](N)C(=O)Nc1ccc(N(CCCS(=O)(=O)O)CCCS(=O)(=O)O)c(Cl)c1 [compound 10] | 685 nm | > 98% | 125 mg/mL (≈ 250 mM) | – |
| CC(C)C[C@H](N)C(=O)Nc1ccc(N(CCS(=O)(=O)O)CCS(=O)(=O)O)c(C#N)c1 [compound 11] | 640 nm | 95% | > 200 mg/mL | – |
| Cc1cc(NC(=O)[C@@H](N)CC(C)C)ccc1N(CCS(=O)(=O)O)CCS(=O)(=O)O [compound 12] | 715 nm | > 98% | > 200 mg/mL | – |
| COC(=O)c1cc(NC(=O)[C@@H](N)CC(C)C)ccc1N(CCCCS(=O)(=O)O)CCCCS(=O)(=O)O [compound 13] | 705 nm | > 98% | > 200 mg/mL | – |
| COc1cc(N(CCCCS(=O)(=O)O)CCCCS(=O)(=O)O)c(C)cc1NC(=O)[C@@H](N)CC(C)C [compound 14] | 720 nm | > 98% | > 200 mg/mL | – |
